The values below come from patent publication US20250197407A1 (Jazz Pharmaceuticals Ireland Limited, priority 2022, published 2025).

Structures are written as SMILES.

Sequence of SOS1/KRAS WT (Q07889 564-1049): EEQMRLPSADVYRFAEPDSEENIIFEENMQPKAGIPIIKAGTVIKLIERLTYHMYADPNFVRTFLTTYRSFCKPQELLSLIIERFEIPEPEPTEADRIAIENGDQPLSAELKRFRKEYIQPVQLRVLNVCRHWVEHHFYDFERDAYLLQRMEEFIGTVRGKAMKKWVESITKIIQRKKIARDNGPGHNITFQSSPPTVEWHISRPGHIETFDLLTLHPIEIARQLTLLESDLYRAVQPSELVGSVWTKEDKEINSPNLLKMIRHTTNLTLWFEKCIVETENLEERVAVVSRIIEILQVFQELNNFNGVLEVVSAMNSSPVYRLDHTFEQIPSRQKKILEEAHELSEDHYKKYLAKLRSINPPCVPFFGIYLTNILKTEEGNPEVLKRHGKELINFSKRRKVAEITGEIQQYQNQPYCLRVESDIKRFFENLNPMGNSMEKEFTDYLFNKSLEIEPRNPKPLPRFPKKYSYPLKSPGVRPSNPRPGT

This assay addresses SOS1/KRAS WT (Homo sapiens (Human), UniProt Q07889). In words: SOS1/KRAS WT HTRF binding assay (FRET-based protein-protein interaction). The settings on record: inhibition of His6-SOS1 (aa564-1049, 40 nM) binding to GST-KRAS-WT (aa1-188, 40 nM); at least two independent replicates; read-out: SOS1/KRAS WT HTRF Binding assay pIC50 (converted). A digest of the protocol: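 Time-resolved FRET at 665 nm, read 4 hr after adding anti-GST-Eu(K) (4 nM) and anti-6His-XL665 (20 nM), tracked SOS1(aa564-1049)–KRAS WT(aa1-188) association. Both proteins were at 40 nM, pre-incubated 60 min at room temperature with compound. Max/min signals came from 0.05% DMSO and 10 μM reference, with four-parameter logistic IC50.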
Turning to `Cc1c(C#N)cccc1[C@@H](C)Nc1nnc(C)c2cc3c(cc12)n(C(C)C)c(=O)n3C` [Compound 45, 2-methyl-3-[(1R)-1-[(3-isopropyl-1,8-dimethyl-2-oxo-imidazo[4,5-g]phthalazin-5-yl)amino]ethyl]benzonitrile], the IC50 was 9.77 nM.

`Cc1c(C2CCNC2)cccc1[C@@H](C)Nc1nnc(C)c2cc3c(cc12)n(C)c(=O)n3C` (stereo partly drawn) [Compound 161, 1,3,8-trimethyl-5-[[(1R)-1-(2-methyl-3-pyrrolidin-3-yl-phenyl)ethyl]amino]imidazo[4,5-g]phthalazin-2-one]: the IC50 was 589 nM.

`Cc1nnc(N[C@H](C)c2cccc(C(F)(F)CO)c2)c2cc3c(cc12)N(C)C(=O)C31CCOCC1` [Compound 128, 1,8-dimethyl-5-[[(1R)-1-[3-(1,1-difluoro-2-hydroxy-ethyl)phenyl]ethyl]amino]spiro [pyrrolo[3,2-g]phthalazine-3,4′-tetrahydropyran]-2-one]: the IC50 is 6.31 nM.

Regarding `Cc1nnc(N[C@H](C)c2cccc(C(F)(F)C(C)(C)O)c2)c2cc3c(cc12)n(C)c(=O)n3C` [Compound 64, 1,3,8-trimethyl-5-[[(1R)-1-[3-(1,1-difluoro-2-hydroxy-2-methyl-propyl)phenyl]ethyl]amino]imidazo [4,5-g]phthalazin-2-one], the IC50 is 8.13 nM.

Take `Cc1cc(-c2cccc([C@@H](C)Nc3nnc(C)c4cc5c(cc34)n(C)c(=O)n5C)c2C)n(C)n1` [Compound 156, 1,3,8-trimethyl-5-[[(1R)-1-[3-(2,5-dimethylpyrazol-3-yl)-2-methyl-phenyl]ethyl]amino]imidazo[4,5-g]phthalazin-2-one]: the IC50 is 89.1 nM.

Turning to `CCC1(OC)C(=O)N(C)c2cc3c(N[C@H](C)c4cccc(C(F)(F)CO)c4C)nnc(C)c3cc21` (stereo partly drawn) [Compound 203, 3-ethyl-3-methoxy-1,5-dimethyl-8-[[(1R)-1-[3-(1,1-difluoro-2-hydroxy-ethyl)-2-methyl-phenyl]ethyl]amino]pyrrolo[2,3-g]phthalazin-2-one], the IC50 is 11.7 nM.

With `Cc1nnc(N[C@H](C)c2cccc(C(F)(F)C(C)(C)O)c2)c2cc3c(cc12)N(C)C(=O)C3(C)C` [Compound 96, 1,3,3,8-tetramethyl-5-[[(1R)-1-[3-(1,1-difluoro-2-hydroxy-2-methyl-propyl)phenyl]ethyl]amino]pyrrolo [3,2-g]phthalazin-2-one], the IC50 is 13.5 nM.

Consider `Cc1nnc(N[C@H](C)c2cccc(C(F)(F)F)c2)c2cc3c(cc12)n(C)c(=O)n3CC1CC1` [Compound 18, 3-(cyclopropylmethyl)-1,8-dimethyl-5-[[(1R)-1-[3-(trifluoromethyl)phenyl]ethyl]amino] imidazo[4,5-g]phthalazin-2-one], for which the IC50 was 23.4 nM.

For the molecule `COCC1(C)C(=O)N(C2CC2)c2cc3c(N[C@H](C)c4cccc(C(F)(F)C(C)(C)O)c4F)nnc(C)c3cc21` (stereo partly drawn) [Compound 136, 1-cyclopropyl-8-[[(1R)-1-[3-(1,1-difluoro-2-hydroxy-2-methyl-propyl)-2-fluoro-phenyl]ethyl]amino]-3-(methoxymethyl)-3,5-dimethyl-pyrrolo[3,2-g]phthalazin-2-one], the IC50 is 14.1 nM.

On to `Cc1nnc(N[C@H](C)c2cc(N)cc(C(F)(F)F)c2)c2cc3c(cc12)n(C)c(=O)n3C` [Compound 4, 5-[[(1R)-1-[3-amino-5-(trifluoromethyl)phenyl]ethyl]amino]-1,3,8-trimethyl-imidazo[4,5-g]phthalazin-2-one], for which the IC50 is 17 nM.

Consider `CCC1(OC)C(=O)N(C)c2cc3c(C)nnc(N[C@H](C)c4cccc(C(F)(F)CO)c4F)c3cc21` (stereo partly drawn) [Compound 197, 5-[[(1R)-1-[3-(1,1-difluoro-2-hydroxy-ethyl)-2-fluoro-phenyl]ethyl]amino]-3-ethyl-3-methoxy-1,8-dimethyl-pyrrolo[2,3-g]phthalazin-2-one], for which the IC50 is 14.5 nM.

For `CCN1C(=O)C(C)(OC)c2cc3c(C)nnc(N[C@H](C)c4cccc(C(F)(F)C(C)(C)O)c4)c3cc21` (stereo partly drawn) [Compound 173, 1-ethyl-3-methoxy-3,5-dimethyl-8-[[(1R)-1-[3-(1,1-difluoro-2-hydroxy-2-methyl-propyl)phenyl]ethyl]amino]pyrrolo [2,3-g]phthalazin-2-one], the IC50 was 11.7 nM.

Turning to `CCOC1(C)C(=O)N(C)c2cc3c(C)nnc(N[C@H](C)c4cccc(C(F)(F)C(C)(C)O)c4)c3cc21` (stereo partly drawn) [Compound 184, 3-ethoxy-1,3,8-trimethyl-5-[[(1R)-1-[3-(1,1-difluoro-2-hydroxy-2-methyl-propyl)phenyl]ethyl]amino]pyrrolo [3,2-g]phthalazin-2-one], the IC50 is 14.8 nM.

Consider `Cc1nnc(N[C@H](C)c2cccc(C(F)(F)CO)c2)c2cc3c(cc12)C1(CCOCC1)C(=O)N3C` [Compound 88, 1,5-dimethyl-8-[[(1R)-1-[3-(1,1-difluoro-2-hydroxy-ethyl)phenyl]ethyl]amino]spiro [pyrrolo[2,3-g]phthalazine-3,4′-tetrahydropyran]-2-one], for which the IC50 is 7.76 nM.

As for `Cc1c(C2=CCOCC2)cccc1[C@@H](C)Nc1nnc(C)c2cc3c(cc12)n(C)c(=O)n3C` [Compound 157, 5-[[(1R)-1-[3-(3,6-dihydro-2H-pyran-4-yl)-2-methyl-phenyl]ethyl]amino]-1,3,8-trimethyl-imidazo[4,5-g]phthalazin-2-one], the IC50 was 204 nM.

Consider `Cc1cc([C@@H](C)Nc2nnc(C)c3cc4c(cc23)n(C)c(=O)n4C)c(C)c(C(F)(F)CO)c1` [Compound 212, 5-[[(1R)-1-[3-(1,1-difluoro-2-hydroxy-ethyl)-2,5-dimethyl-phenyl]ethyl]amino]-1,3,8-trimethyl-imidazo[4,5-g]phthalazin-2-one], for which the IC50 was 12.6 nM.

On to `Cc1nnc(N[C@H](C)c2cccc(C(F)F)c2F)c2cc3c(cc12)n(C)c(=O)n3C` [Compound 31, 1,3,8-trimethyl-5-[[(1R)-1-[3-(difluoromethyl)-2-fluoro-phenyl]ethyl]amino]imidazo[4,5-g]phthalazin-2-one], for which the IC50 was 9.55 nM.

Consider `Cc1nnc(N[C@H](C)c2cccc(C(F)F)c2F)c2cc3c(cc12)n(C)c(=O)n3C1COC1` [Compound 147, 5-[[(1R)-1-[3-(difluoromethyl)-2-fluoro-phenyl]ethyl]amino]-1,8-dimethyl-3-(oxetan-3-yl)imidazo[4,5-g]phthalazin-2-one], for which the IC50 was 12.3 nM.

With `Cc1nnc(N[C@H](C)c2cccc(C(F)(F)CO)c2)c2cc3c(cc12)n(C)c(=O)n3C` [Compound 6, 5-[[(1R)-1-[3-(1,1-difluoro-2-hydroxy-ethyl)phenyl]ethyl]amino]-1,3,8-trimethyl-imidazo[4,5-g]phthalazin-2-one], the IC50 was 18.6 nM.

For `COC1(C)C(=O)N(C)c2cc3c(N[C@H](C)c4cc(F)cc(C(F)(F)C(C)(C)O)c4C)nnc(C)c3cc21` (stereo partly drawn) [Compound 181, 3-methoxy-1,3,5-trimethyl-8-[[(1R)-1-[3-(1,1-difluoro-2-hydroxy-2-methyl-propyl)-5-fluoro-2-methyl-phenyl]ethyl]amino]pyrrolo[2,3-g]phthalazin-2-one], the IC50 is 13.2 nM.

Regarding `CCOC1(C)C(=O)N(C)c2cc3c(N[C@H](C)c4cccc(C(F)(F)CO)c4C)nnc(C)c3cc21` (stereo partly drawn) [Compound 134, 3-ethoxy-1,3,5-trimethyl-8-[[(1R)-1-[3-(1,1-difluoro-2-hydroxy-ethyl)-2-methyl-phenyl]ethyl]amino]pyrrolo[2,3-g]phthalazin-2-one], the IC50 is 6.17 nM.
